The subject of data set [1] is SD rat model of focal ischemia-reperfusion. The data set can be described thus: Dose-effect relationship in SD rat model of focal ischemia-reperfusion (MCAO). The data set is classed as in vivo, SD rats. The settings on record: given 2 h after reperfusion, mean ± standard error; for Score of Symptoms of Neurological Deficits: 48 h, modified Bederson 5-point scale; for Infarction area: evaluated after 48 h. As for the experimental part:
In this example, phenylpropionate compounds were studied for dose-effect relationship, with D-bornyl ferulate (administrated at 4.0 mg/kg) and D-tanshinol borneol ester (administrated at 4.0 mg/kg) as positive control drugs. Structures of D-bornyl ferulate (Patent Application No.: 201510243181.5) and D-tanshinol borneol ester compounds are as follows:
Trial method: A cerebral ischemia reperfusion model of middle cerebral artery occlusion (MCAO) was prepared by an internal carotid artery suture method. An animal was anesthetized with 10% chloral hydrate (3.6 mL/kg) and then fixed on an operating table in a supine position. Its skin was disinfected, and a midline incision was made on the neck. The right common carotid artery, external carotid artery, and internal carotid artery were separated, the vagus nerve was gently striped off, and the external carotid artery was ligated and cut. The common carotid artery was clamped at the proximal end. […] The nylon thread was advanced through the bifurcation of the common carotid artery into the internal carotid artery, and then was slowly inserted until there was slight resistance (about 20 mm from the bifurcation) to block all the blood supply to the middle cerebral artery. 2 h after cerebral ischemia, the nylon thread was gently pulled out to restore blood supply for reperfusion, and the neck skin was sutured and disinfected. The animal was put back in a cage and raised. During the modeling operation, animals with abnormal conditions due to anesthesia, surgery, etc. were excluded, and successfully modeled animals were randomly grouped. Schemes were set according to different trial doses, and drug treatment was given 2 h after cerebral ischemia-reperfusion. Death conditions were recorded every day after the surgery, and indicators were evaluated after 48 h. In the whole trial process, general conditions were observed, mainly including: death, coma, breathing, urine and feces traits, hair colors, mental status, vomiting and vomitus, bleeding, convulsion, spasm, etc. Abnormal animals due to unexpected factors were excluded. Finally, unblinding was conducted by a person who made blind trials.
Evaluated indicator: (1) Evaluation of symptoms of neurological deficits: The symptoms of neurological deficits were evaluated by using a modified Bederson 5-point scale. A single-blind method was used for evaluating the symptoms of neurological deficits in rats with brain trauma. That is, a trial designer marked animals in accordance with groups, and an experimenter who scored the symptoms of neurological deficits had no knowledge of how the animals were grouped. After scoring was completed, the scorer submitted scoring results for various marks to the designer, and the designer performed unblinding to obtain scores of animals in each trial group. (2) Measurement of cerebral infarction area: A method reported in the literature was used. An animal was anesthetized with 10% chloral hydrate and decapitated to collect brain. The olfactory bulb, cerebellum and lower brain stem were removed. Blood stains on the surface of the brain were rinsed with normal saline, the residual water stains on the surface were absorbed, and the brain was placed at −80° C. for 7 min. After the brain was taken out, a coronal section was immediately made at downwards and vertical to the sight intersection plane, and brain slices were made every 2 mm backwards. Brain slices were placed in a TTC (20 g/L) dye solution prepared with 0.9% normal saline, and incubated at 37° C. for 90 min. Normal brain tissues were stained deep red, and ischemic brain tissues were pale-white. After rinsed with normal saline, the brain sections were quickly arranged in order from front to back, the residual water stains on the surface were absorbed to dryness, and pictures were taken. Image analysis software was used for statistics on the pictures. […]

A further data set has as its system IL-1β. Description: Inflammatory factor IL-1β in blood and brain tissues of rats with acute cerebral ischemia-reperfusion. The class given is in vivo, SD rats. The settings on record: 4 mg/kg iv 2 h after reperfusion; 4 h after administration; n=5. As for the experimental part: Trial method: Effects on inflammatory factors and blood viscosity of rats with acute cerebral ischemia-reperfusion: 70 Male SD rats underwent an MACO surgery by a suture method, and after the surgery, alive rats were randomly grouped (into 7 groups, the number of successful animals in each group was guaranteed to be 6 to 8). Blood perfusion was recovered 2 h after MCAO, and corresponding trial medicaments were intravenously injected 2 h after blood reperfusion. 4 hours after the administration, blood was collected and the rats were sacrificed to take out brain tissues. The brain tissues and part of the blood were centrifuged to collect serum which was detected for inflammatory factors, and part of the blood was detected for blood viscosity by using a blood viscometer. Detected indicators: cerebral infarction area; inflammatory factors IL-1β and TNF-α; and blood viscosity.
Table 3 lists results of effects of phenylpropionate compounds (4 mg/kg) on inflammatory factors in blood and brain tissues of rats (n=5).

The next data set relates to SD rats. Description: Acute toxicity, single-dose intravenous injection in SD rats. The class given is in vivo. The settings on record: for tolerance: single-dose intravenous injection (5, 10, 20 mg/kg); for toxic side effects: single-dose intravenous injection up to 20 mg/kg, observed to day 8. The text has this: In this example, Compound A and Compound C were studied for acute toxicity by a method described below.
Trial method: 30 SD rats, half male and half female, were used. The average weight was 160-200 g for female rats and 180-220 g for male rats when grouped. An individual weight should be within ±20% of the average weight. Before trial, animals were accommodated environment for at least 5 days, and healthy rats (female rats should be not pregnant) were selected as trial animals. Matter inspected during the accommodation period mainly was: whether the rats were consistent with quality indicators required in the order; inspection of general condition; and whether the weight was within the weight range required by the trial. Unqualified abnormal animals were excluded from the trial. A single dosage was injected through tail veins of rats at low, medium, or high dose. The doses were adjusted to be 5 mg/kg, 10 mg/kg, and 20 mg/kg, respectively according to blank preparation pre-trials. A control group was set in which a same volume of vehicle was intravenously injected.
The rats were observed about 0-2 h and 4-6 h after each administration. If a toxicity symptom occurs, the animal may be observed more times. (2) Gross anatomical observation: On the 8th day of the trial, all surviving rats in each group were dissected and observed, and administration sites and abnormal organs and tissues which were identified through gross anatomical observation to be potentially related to trial samples were photographed and recorded. (3) Disposal of dying animals: Status of rats and observation time were recorded, and their weights were measured. (4) Disposal of dead animals: The time of death or when a rat was found dead were recorded. The rat was measured for weight before quickly dissected for gross observation and speculated for cause of death.

These results are taken from patent US11767286B2, “Phenylpropionate compound, preparation method for same, and applications thereof” (SUZHOU PHARMAVAN CO., LTD, priority 2017, dated 2023).

In the case of `COc1cc(CCC(=O)O[C@H]2C[C@H]3CC[C@]2(C)C3(C)C)cc(OC)c1O` [Compound C], in data set [1] (2.0 mg/kg), the “Score of Symptoms of Neurological Deficits” value is reported as 2.45 ± 0.13 and the Infarction area was 22.24 ± 2.84 %. In addition, in data set [1] (4.0 mg/kg), the “Score of Symptoms of Neurological Deficits” value is given as 2.18 ± 0.23 and the Infarction area was 21.04 ± 2.14 %. For the same compound, in data set [1] (8.0 mg/kg), the “Score of Symptoms of Neurological Deficits” value was 1.98 ± 0.14 and the Infarction area is reported as 19.32 ± 3.53 %. The compound also had an IL-1β in the data set with IL-1β of 59.3 ± 8.7 ng/L. Moreover, in the data set with SD rats, the tolerance was determined as 20 mg/kg and the toxic side effects entry is listed as “no obvious toxic side effects”.
With `COc1cc(CCC(=O)O[C@H]2C[C@H]3CC[C@]2(C)C3(C)C)cc(F)c1O` [Compound A], in data set [1] (2.0 mg/kg), the “Score of Symptoms of Neurological Deficits” value is listed as 2.05 ± 0.20 and the Infarction area was found to be 24.73 ± 2.63 %. In data set [1] (4.0 mg/kg), the “Score of Symptoms of Neurological Deficits” value was 1.94 ± 0.19 and the Infarction area was determined as 20.25 ± 2.53 %. In addition, in data set [1] (8.0 mg/kg), the “Score of Symptoms of Neurological Deficits” value is reported as 1.75 ± 0.21 and the Infarction area was 18.38 ± 2.74 %. The IL-1β in the data set on IL-1β worked out at 53.8 ± 6.4 ng/L. In addition, in the data set with SD rats, the tolerance is recorded as 20 mg/kg and the toxic side effects result is “no obvious toxic side effects”.
